# Assay results: PMC6617451, “Dual Kit/Aur Inhibitors as Chemosensitizing Agents for the Treatment of Melanoma: Design, Synthesis, Docking Studies and Functional Investigation” (Scientific Reports, 2019)
# “And” between values parts separate entries of the source, which are not always exact repeats. Equal entries are not always repeated.
# Tests used:
# [1] = target: T1, AurA (Homo sapiens, UniProt O14965); assay: Protein kinase inhibitory assay, AurA; type: biochemical; settings: 10 μM test compound
# T1 construct: purchased ThermoFisher Scientific
# T1 sequence (O14965 1-403): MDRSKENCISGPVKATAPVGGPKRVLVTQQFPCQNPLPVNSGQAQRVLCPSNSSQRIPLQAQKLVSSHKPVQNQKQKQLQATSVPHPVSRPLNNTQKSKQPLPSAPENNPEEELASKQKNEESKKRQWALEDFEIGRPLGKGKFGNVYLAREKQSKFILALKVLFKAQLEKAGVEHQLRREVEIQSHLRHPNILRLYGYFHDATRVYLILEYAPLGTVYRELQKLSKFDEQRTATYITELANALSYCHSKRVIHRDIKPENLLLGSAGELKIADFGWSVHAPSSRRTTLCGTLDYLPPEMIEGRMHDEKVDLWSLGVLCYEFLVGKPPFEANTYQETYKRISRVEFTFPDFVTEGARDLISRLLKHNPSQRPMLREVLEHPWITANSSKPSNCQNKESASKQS
# [2] = target: T2, AurB (Homo sapiens, UniProt Q96GD4); assay: Protein kinase inhibitory assay, AurB; type: biochemical; settings: 10 μM test compound
# T2 construct: purchased ThermoFisher Scientific
# Experimental: (§1) Cell culture media EMEM and DMEM, fetal bovine serum (FBS), L-glutamine, and antibiotics were from Sigma-Aldrich St. Louis, MO, USA). Vemurafenib was purchased from Selleckchem (Munich, Germany). Human recombinant protein kinases and Protein kinase assay kits were from ThermoFisher Scientific (MA, US). Plastics were supplied by Sarstedt (Verona, Italy).
# (§2) Inhibitory assays were performed in accordance with a previously reported procedure, standardized for RET and VEGFR2[28],[41]. Test compounds were dissolved in 100% DMSO and diluted to the appropriate concentrations with the reaction buffer, provided by the kit. […] The inhibitory effect of the novel compounds was routinely estimated at 10 μM concentration.
# [3] = target: T3, AurC (Homo sapiens, UniProt Q9UQB9); assay: Protein kinase inhibitory assay, AurC; type: biochemical; settings: 10 μM test compound
# T3 construct: purchased ThermoFisher Scientific
# T3 sequence (Q9UQB9 1-309): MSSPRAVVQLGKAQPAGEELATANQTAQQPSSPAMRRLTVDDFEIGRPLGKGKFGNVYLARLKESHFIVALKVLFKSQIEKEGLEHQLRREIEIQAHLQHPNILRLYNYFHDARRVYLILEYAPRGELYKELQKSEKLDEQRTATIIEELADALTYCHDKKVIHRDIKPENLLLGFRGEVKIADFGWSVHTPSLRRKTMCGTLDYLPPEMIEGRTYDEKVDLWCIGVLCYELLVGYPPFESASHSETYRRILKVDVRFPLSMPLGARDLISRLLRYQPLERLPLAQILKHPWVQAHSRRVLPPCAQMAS
# Experimental: as §1, §2
# [4] = system: WM266-4 cell line; assay: Proliferation assay, WM266-4 melanoma cells (single agents and combination, Chou-Talalay); type: cell-based, human; settings: for Dose Reduction Index (DRI) 6a + vemurafenib: DRI of each drug in the combination
# Experimental: (§3) Compound 6a, merging the best inhibitory profile against the target c-Kit/AurB kinases, was tested on the human A2058 (American Type Culture Collection, Manassas, USA) and WM266-4 (European Collection of Authenticated Cell Cultures, Salisbury, UK) cell lines, chosen as representative of BRAF-mutated melanoma cell lines, to investigate its anti-proliferative efficacy. […]. Vemurafenib, the BRAF V600E inhibitor currently used for the treatment of inoperable, metastatic melanoma, was used as the reference compound. […] The level of possible interaction between the two kinase inhibitors, synergistic, additive or antagonist in nature, was determined by the method of Chou-Talaly[38] and quantitated through the combination index (CI), calculated exploiting the following multiple drug-effect Eq. (1)1 CI=[(D)1/(Dx)1]+[(D)2/(Dx)2] and referred to as synergism, additive effect and antagonism when CI < 1, CI = 1 and CI > 1, respectively.
# (§4) The Dose Reduction Index (DRI) was calculated as well, to assess the theoretical magnitude of concentration reduction allowed for the two drugs when given in synergistic combination in vitro to achieve the same effect as that obtained with the concentration of each single agent. DRI was calculated by the following Eq. (2):2 (DRI)=(Dx)/(D)
# (§5) Test compounds 6a and vemurafenib were dissolved in a stock solution of 10 mM in 100% dimethylsulfoxide (DMSO) for in vitro studies. DMSO concentration in the control’s media was the same used to make up the highest concentration of test compounds in growth media for the same experiment. In vitro chemosensitivity was tested on melanoma WM266-4 and A2058 cell lines. Cells were grown in EMEM and DMEM media, respectively, plated in sterile 24-well plastic plates and treated for 72 h (using 10^3 cells/well in 1 mL of medium) with added 6a (range of 1–100 μM), or vemurafenib (0.0001–100 μM) alone. The synergistic effect between 6a and vemurafenib was calculated with the method of Chou-Talaly[38] based on the multiple drug-effect equation and quantitated by the combination index (CI) and the dose reduction index (DRI), where CI < 1 and DRI > 1 indicate synergism. At the end of the experiment, cells were harvested with trypsin/EDTA, and viable cells were quantified using the automatic cell counter ADAM MC Digital B (Twin Helix, Milano, Italy). The data are presented as the percentage of vehicle-treated cells. […] All experiments were repeated independently three times with at least nine samples for each concentration.
# [5] = system: A2058 cell line; assay: Proliferation assay, A2058 melanoma cells (single agents and combination, Chou-Talalay); type: cell-based, human; settings: for Dose Reduction Index (DRI) 6a + vemurafenib: DRI of each drug in the combination
# Experimental: as §3, §4, §5
# [6] = target: T4, c-Kit phosphorylation (Homo sapiens, UniProt P10721); assay: c-Kit phosphorylation ELISA assay in melanoma cells; type: cell-based; settings: WM266-4 and A2058 cells, 6a 10 μM, 72 h, vs vehicle-treated
# T4 construct: endogenous in cells; host or cells: WM266-4 and A2058 human melanoma cells
# Experimental: (§6) WM266-4 and A2058 cells (5 × 10^4 cells/well) were treated for 72 h with compound 6a (10 μM) or with vehicle alone. To measure phospho c-Kit and phospho AurB, at the end of the experiment, the cells were harvested and immediately frozen with liquid nitrogen. Cells were then lysed and the total protein was measured. In each sample, an equal amount of proteins was then assayed for human c-Kit and AurB phosporylation by the Human Phospho-CD117/c-kit ELISA Kit (Assaysolution; Woburn, MA, USA) and the AurB (Phospho-Thr232) ELISA Kit (Aviva System Biology; San Diego, CA, USA) and normalized by total protein c-Kit and AurB concentration measured by c-Kit and AurB ELISA kits, respectively. The optical density was determined using the microplate reader Multiskan Spectrum set to 450 nm. All experiments were repeated, independently, six times with at least nine samples for each concentration. The data were expressed as the ratio of phosphorylated c-Kit or AurB/total c-Kit or AurB.
# [7] = target: T5, AurB phosphorylation (Homo sapiens, UniProt Q96GD4); assay: AurB phosphorylation (Phospho-Thr232) ELISA assay in melanoma cells; type: cell-based; settings: WM266-4 and A2058 cells, 6a 10 μM, 72 h, vs vehicle-treated
# T5 construct: endogenous in cells; host or cells: WM266-4 and A2058 human melanoma cells
# Experimental: as §6
# [8] = WM266-4, affected cell fraction 75%
# [9] = WM266-4, affected cell fraction 85%
# [10] = WM266-4, affected cell fraction 95%
# [11] = A2058, affected cell fraction 75%
# [12] = A2058, affected cell fraction 85%
# T2 sequence (Q96GD4 whole entry): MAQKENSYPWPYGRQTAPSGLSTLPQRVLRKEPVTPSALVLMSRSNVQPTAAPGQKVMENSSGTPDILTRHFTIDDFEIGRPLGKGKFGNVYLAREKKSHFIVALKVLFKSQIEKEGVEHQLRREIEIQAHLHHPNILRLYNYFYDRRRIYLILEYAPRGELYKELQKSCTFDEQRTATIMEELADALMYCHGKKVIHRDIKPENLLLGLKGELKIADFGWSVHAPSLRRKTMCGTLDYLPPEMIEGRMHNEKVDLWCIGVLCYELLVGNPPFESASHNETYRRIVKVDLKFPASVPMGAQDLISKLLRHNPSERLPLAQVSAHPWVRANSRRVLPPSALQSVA
# T4 sequence (P10721 26-976): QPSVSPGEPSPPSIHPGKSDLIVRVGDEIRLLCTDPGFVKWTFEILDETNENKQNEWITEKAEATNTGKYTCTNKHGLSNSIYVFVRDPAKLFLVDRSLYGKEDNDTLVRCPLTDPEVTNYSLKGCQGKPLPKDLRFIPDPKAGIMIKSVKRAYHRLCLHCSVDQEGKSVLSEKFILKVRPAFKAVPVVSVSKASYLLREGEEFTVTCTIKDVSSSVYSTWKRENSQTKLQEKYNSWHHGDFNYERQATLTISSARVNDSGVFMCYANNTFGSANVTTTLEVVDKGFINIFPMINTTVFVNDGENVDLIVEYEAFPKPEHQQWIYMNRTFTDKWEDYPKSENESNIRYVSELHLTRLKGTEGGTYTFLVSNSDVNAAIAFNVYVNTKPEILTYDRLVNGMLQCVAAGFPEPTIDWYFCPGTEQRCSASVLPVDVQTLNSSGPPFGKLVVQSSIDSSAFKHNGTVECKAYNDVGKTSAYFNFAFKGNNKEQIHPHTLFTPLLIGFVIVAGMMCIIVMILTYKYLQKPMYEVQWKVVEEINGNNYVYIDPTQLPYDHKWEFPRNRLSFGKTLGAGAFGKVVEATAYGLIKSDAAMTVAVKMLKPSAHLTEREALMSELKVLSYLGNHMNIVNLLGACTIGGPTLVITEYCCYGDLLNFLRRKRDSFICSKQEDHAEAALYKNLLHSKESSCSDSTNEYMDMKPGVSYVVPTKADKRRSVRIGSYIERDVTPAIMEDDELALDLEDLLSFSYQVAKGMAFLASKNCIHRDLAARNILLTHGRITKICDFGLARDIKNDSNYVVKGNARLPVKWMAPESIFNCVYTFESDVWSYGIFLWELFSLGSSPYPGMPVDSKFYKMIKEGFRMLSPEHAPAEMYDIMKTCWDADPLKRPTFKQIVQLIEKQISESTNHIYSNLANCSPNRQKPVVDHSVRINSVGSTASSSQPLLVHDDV
# T5 sequence (Q96GD4 whole entry): as the sequence (Q96GD4 whole entry) above
Compound,"percentage of kinase inhibition, AurA [1]","percentage of kinase inhibition, AurB [2]","Dose Reduction Index (DRI) 6a + vemurafenib [4, 8]","Dose Reduction Index (DRI) 6a + vemurafenib [4, 9]","Dose Reduction Index (DRI) 6a + vemurafenib [4, 10]","Dose Reduction Index (DRI) 6a + vemurafenib [5, 11]","Dose Reduction Index (DRI) 6a + vemurafenib [5, 12]",further results
O=C(Nc1ccc(SCc2n[nH]c(-c3ccc(Br)cc3)n2)cc1)Nc1ccc(C(F)(F)F)cc1 [Compound 6g],no inhibitory activity,–,–,–,–,–,–,–
COc1ccc(NC(=O)Nc2ccc(SCc3n[nH]c(-c4ccc(Br)cc4)n3)cc2)cc1OC [Compound 6h],–,no inhibitory activity,–,–,–,–,–,–
CN(C)c1ccc(NC(=O)Nc2ccc(SCc3n[nH]c(-c4ccc(Cl)cc4)n3)cc2)cc1 [Compound 6e],no inhibitory activity,no inhibitory activity,–,–,–,–,–,–
"O=C(Nc1ccccc1)Nc1ccc(SCc2n[nH]c(-c3ccccc3)n2)cc1 [Compound 6a, 1-phenyl-3-(4-(((3-phenyl-1H-1,2,4-triazol-5-yl)methyl)thio)phenyl)urea]",most active of the synthesized series,–,374.9,272.1,150 and 147.9,494.1,429.0,"percentage of kinase inhibition, AurC [3]: most effective of the whole series; IC50 ([4]; Homo sapiens, WM 266-4, WM266-4, BRAF V600E, 72 h exposure, read-out: IC50 antiproliferative activity): 9.65 µM; IC50 ([5]; Homo sapiens, A2058, BRAF V600D, 72 h exposure, read-out: IC50 antiproliferative activity): 11.4 µM; inhibition of c-Kit phosphorylation (ratio phosphorylated c-Kit/total c-Kit) [6]: significant inhibition of c-Kit phosphorylation; quantity of the phosphorylated form of AurB (ratio phosphorylated AurB/total AurB) [7]: weakly reduced"
CCCS(=O)(=O)Nc1ccc(F)c(C(=O)c2c[nH]c3ncc(-c4ccc(Cl)cc4)cc23)c1F [vemurafenib],–,–,1.1,1.2,1.4,21.8,22.2,"Dose Reduction Index (DRI) 6a + vemurafenib ([5]; A2058, affected cell fraction 95%): 22.9"
